These results are taken from patent US12482280B2, “Biological image transformation using machine-learning models” (Insitro, Inc., priority 2020, dated 2025).

This experiment deals with tissues with NASH. In words: Evaluation of drug treatment in NASH disease model using GAN-generated phase/fluorescence images. As to conditions: NASH 2X + ACC inhibitor. It counts as cell-based. An excerpt:
FIG. 16A illustrates synthetic images generated by an exemplary GAN model to study the NASH disease, in accordance with some embodiments. In the depicted example, Hepg2 cells with NASH genetic background are illuminated using an optimal illumination pattern identified using techniques described herein, and a bright-field image is captured. The bright-field image is inputted into a GAN model, which outputs a generated phase image and a generated fluorescence/bodipy image in FIG. 16A. The GAN model used in FIG. 16A can be configured to include a trained classifier as described with reference to FIGS. 14A-B and 15. The classifier has two conditions: a healthy condition (e.g., no perturbations) and a diseased condition (e.g., inflammation cocktail plus fatty acid). […]
The synthetic images generated by the GAN model can also be used to evaluate the efficacy of a treatment. […] The images can be phase images or fluorescence images generated using the techniques described herein (e.g., from bright-field images). Each phase or fluorescence image can be generated based on multiple bright-field images and thus comprises richer information such as phase shift information. Accordingly, the generated phase or fluorescence images can allow for higher precision in downstream analyses, as described below. […]

As to `COc1ccccc1[C@H](Cn1c(=O)n(C(C)(C)C(=O)O)c(=O)c2c(C)c(-c3ncco3)sc21)OC1CCOCC1` [ACC inhibitor, firsocostate], the “probability of having the disease outputted by a classifier trained on generated images (distribution, FIG. 16C)” value (50 uM, treated tissues vs untreated diseased tissues, generated images) is “lower probabilities of having the disease than generated images of diseased tissues”. Moreover, the “image clusters in an embedding space (UMAP, FIG. 16D)” value (generated images of treated vs diseased vs healthy tissues) was “moves away from the cluster of generated diseased images and toward the cluster of generated healthy images”.
